What was measured:
[1] = biological target: full-length MALT1 protein (Strep-MALT1(1-824)-His) (Homo sapiens (Human), UniProt Q9UDY8); test: MALT1 Biochemical Protease Assay (Ac-LRSR-AMC substrate); details: 10 nM FL MALT1, 200 μM Ac-LRSR-AMC, 4 h at RT; read-out: MALT1_Biochemical activity (Ac-LRSR-amc) IC50
In short: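 Fluorescence from AMC release off the quenched LRSR substrate was read after a 4 h reaction at RT. Values were normalised to no-enzyme and uninhibited controls and fitted for IC50 and Hill coefficient.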

[2] = test system: IL6 secretion by TMD8 ABC-DLBCL cells; test: Human IL6 Mesoscale assay (TMD-8); format: cell-based; details: Homo sapiens, TMD8; TMD-8 cells, 24 h
In short: (§1)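 Compounds tested from 15 μM to 58.6 nM (twofold, 9 concentrations) on 100,000 cells per well over 24 h at 37° C, without beta-mercaptoethanol. Secreted cytokine in supernatant detected by MSD electrochemiluminescence; scaling used DMSO as maximum and RN486 as full inhibition.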

[3] = test system: IL10 secretion by TMD8 ABC-DLBCL cells; test: Human IL10 Mesoscale assay (TMD-8); format: cell-based; details: Homo sapiens, TMD8; TMD-8 cells, 24 h
In short: as §1

[4] = test system: IL6 secretion by OCI-LY3 ABC-DLBCL cells; test: Human IL6 Mesoscale assay (OCI-LY3); format: cell-based; details: 24 h
In short: as §1

[5] = test system: IL10 secretion by OCI-LY3 ABC-DLBCL cells; test: Human IL10 Mesoscale assay (OCI-LY3); format: cell-based; details: 24 h
In short: as §1

full-length MALT1 protein (Strep-MALT1(1-824)-His), sequence (Q9UDY8 whole entry): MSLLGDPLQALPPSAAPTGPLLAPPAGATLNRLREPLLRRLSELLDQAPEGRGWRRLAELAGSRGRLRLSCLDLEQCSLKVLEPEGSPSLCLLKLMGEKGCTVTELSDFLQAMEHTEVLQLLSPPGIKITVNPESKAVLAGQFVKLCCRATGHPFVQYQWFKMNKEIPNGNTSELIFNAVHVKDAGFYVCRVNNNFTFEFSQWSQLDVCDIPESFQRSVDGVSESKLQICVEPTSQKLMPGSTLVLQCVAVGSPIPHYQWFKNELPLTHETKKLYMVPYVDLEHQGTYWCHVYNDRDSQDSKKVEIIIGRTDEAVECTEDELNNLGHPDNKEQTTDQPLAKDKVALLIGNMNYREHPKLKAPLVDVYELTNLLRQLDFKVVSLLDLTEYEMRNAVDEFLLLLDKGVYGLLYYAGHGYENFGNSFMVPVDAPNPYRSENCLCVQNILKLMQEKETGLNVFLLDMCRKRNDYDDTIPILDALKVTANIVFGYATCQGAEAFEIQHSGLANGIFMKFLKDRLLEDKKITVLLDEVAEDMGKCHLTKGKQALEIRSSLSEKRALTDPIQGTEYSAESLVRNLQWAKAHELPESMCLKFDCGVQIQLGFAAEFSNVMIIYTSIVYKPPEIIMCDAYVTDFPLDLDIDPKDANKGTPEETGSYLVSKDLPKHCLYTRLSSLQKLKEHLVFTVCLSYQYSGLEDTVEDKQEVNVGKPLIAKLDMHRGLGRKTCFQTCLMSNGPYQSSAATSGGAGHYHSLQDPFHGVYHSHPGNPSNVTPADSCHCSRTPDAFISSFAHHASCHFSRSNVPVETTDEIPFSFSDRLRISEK

Molecule	IC50 [1] [nM]	IC50 [2] [nM]	IC50 [3] [nM]	IC50 ([4]; Homo sapiens) [nM]	IC50 ([5]; Homo sapiens) [nM]	IC50 [4] [nM]	IC50 [5] [nM]
C[C@@H](O)c1nccc2c(-n3ncc(C(=O)Nc4cnc(-n5nccn5)c(Cl)c4)c3C(F)(F)F)cccc12 (single isomer, unassigned) [Cpd 444, (*R)—N-(5-chloro-6-(2H-1,2,3-triazol-2-yl)pyridin-3-yl)-1-(1-(1-hydroxyethyl)isoquinolin-5-yl)-5-(trifluoromethyl)-1H-pyrazole-4-carboxamide]	58	107	63	39	27	–	–
N#Cc1cc(NC(=O)c2cnn(-c3cnc4ccccn34)c2C(F)(F)F)cnc1-n1nccn1 [Cpd 189, N-(5-cyano-6-(2H-1,2,3-triazol-2-yl)pyridin-3-yl)-1-(imidazo[1,2-a]pyridin-3-yl)-5-(trifluoromethyl)-1H-pyrazole-4-carboxamide]	78	107	63	39	27	–	–
Cc1nc(-n2nccn2)c(Cl)cc1NC(=O)c1cnn(-c2cccc3nccn23)c1C(F)(F)F [Cpd 194, N-(5-chloro-2-methyl-6-(2H-1,2,3-triazol-2-yl)pyridin-3-yl)-1-(imidazo[1,2-a]pyridin-5-yl)-5-(trifluoromethyl)-1H-pyrazole-4-carboxamide]	76	78	98	100	68	–	–
N#Cc1cc(NC(=O)c2cnn(-c3cncc4ccccc34)c2C(F)(F)F)cnc1C(=O)NCCCCN [Cpd 236, N-(4-aminobutyl)-3-cyano-5-(1-(isoquinolin-4-yl)-5-(trifluoromethyl)-1H-pyrazole-4-carboxamido)picolinamide]	724	1380	427	380	309	–	–
Cc1cc(NC(=O)c2cnn(-c3cccc4ncccc34)c2C(F)(F)F)ccc1-n1cc(CN)cn1 [Cpd 238, N-(4-(4-(aminomethyl)-1H-pyrazol-1-yl)-3-methylphenyl)-1-(quinolin-5-yl)-5-(trifluoromethyl)-1H-pyrazole-4-carboxamide]	676	32	50	44	35	–	–
Cn1ncc2c(-n3ncc(C(=O)Nc4cnc(-n5nccn5)c(C#N)c4)c3C(F)(F)F)ccnc21 [Cpd 241, N-(5-cyano-6-(2H-1,2,3-triazol-2-yl)pyridin-3-yl)-1-(1-methyl-1H-pyrazolo[3,4-b]pyridin-4-yl)-5-(trifluoromethyl)-1H-pyrazole-4-carboxamide]	562	49	69	51	37	–	–
COc1nccc2c(-n3ncc(C(=O)Nc4cnc(-n5nccn5)c(Cl)c4)c3C(F)(F)F)cccc12 [Cpd 243, N-(5-chloro-6-(2H-1,2,3-triazol-2-yl)pyridin-3-yl)-1-(1-methoxyisoquinolin-5-yl)-5-(trifluoromethyl)-1H-pyrazole-4-carboxamide]	417	363	339	120	129	–	–
O=C(Nc1cnc(-n2nccn2)c(Cl)c1)c1cnn(-c2c[n+]([O-])cc3sccc23)c1C(F)(F)F [Cpd 409, 4-(4-((5-chloro-6-(2H-1,2,3-triazol-2-yl)pyridin-3-yl)carbamoyl)-5-(trifluoromethyl)-1H-pyrazol-1-yl)thieno[2,3-c]pyridine 6-oxide]	2290	–	–	98	95	–	–
Cc1nc(-n2nccn2)c(Cl)cc1NC(=O)c1cnn(-c2c[n+]([O-])cc3sccc23)c1C(F)(F)F [Cpd 410, 4-(4-((5-chloro-2-methyl-6-(2H-1,2,3-triazol-2-yl)pyridin-3-yl)carbamoyl)-5-(trifluoromethyl)-1H-pyrazol-1-yl)thieno[2,3-c]pyridine 6-oxide]	71	–	–	93	68	–	–
N#Cc1cc(-n2ncc(C(=O)Nc3cnc(-n4nccn4)c(Cl)c3)c2C(F)(F)F)c2ccccc2n1 [Cpd 412, N-(5-chloro-6-(2H-1,2,3-triazol-2-yl)pyridin-3-yl)-1-(2-cyanoquinolin-4-yl)-5-(trifluoromethyl)-1H-pyrazole-4-carboxamide]	22	–	–	1780	912	–	–
COc1cc(-n2ncc(C(=O)Nc3cnc(-n4nccn4)c(Cl)c3)c2C(F)(F)F)c2ccccc2n1 [Cpd 417, N-(5-chloro-6-(2H-1,2,3-triazol-2-yl)pyridin-3-yl)-1-(2-methoxyquinolin-4-yl)-5-(trifluoromethyl)-1H-pyrazole-4-carboxamide]	174	–	–	437	309	–	–
COc1ccc2c(-n3ncc(C(=O)Nc4cnc(-n5nccn5)c(Cl)c4)c3C(F)(F)F)cccc2n1 [Cpd 420, N-(5-chloro-6-(2H-1,2,3-triazol-2-yl)pyridin-3-yl)-1-(2-methoxyquinolin-5-yl)-5-(trifluoromethyl)-1H-pyrazole-4-carboxamide]	10	–	–	447	339	–	–
COc1ncc(-n2ncc(C(=O)Nc3cnc(-n4nccn4)c(Cl)c3)c2C(F)(F)F)c2ccccc12 [Cpd 421, N-(5-chloro-6-(2H-1,2,3-triazol-2-yl)pyridin-3-yl)-1-(1-methoxyisoquinolin-4-yl)-5-(trifluoromethyl)-1H-pyrazole-4-carboxamide]	20	–	–	457	479	–	–
CCOc1ncc(-n2ncc(C(=O)Nc3cnc(-n4nccn4)c(Cl)c3)c2C(F)(F)F)c2ccccc12 [Cpd 422, N-(5-chloro-6-(2H-1,2,3-triazol-2-yl)pyridin-3-yl)-1-(1-ethoxyisoquinolin-4-yl)-5-(trifluoromethyl)-1H-pyrazole-4-carboxamide]	11	–	–	191	174	–	–
Cn1cc(-n2ncc(C(=O)Nc3cnc(-n4nccn4)c(Cl)c3)c2C(F)(F)F)c2ccccc2c1=O [Cpd 423, N-(5-chloro-6-(2H-1,2,3-triazol-2-yl)pyridin-3-yl)-1-(2-methyl-1-oxo-1,2-dihydroisoquinolin-4-yl)-5-(trifluoromethyl)-1H-pyrazole-4-carboxamide]	54	–	–	123	44	–	–
O=C(Nc1cnc(-n2nccn2)c(Cl)c1)c1cnn(-c2cnc(Cl)c3sccc23)c1C(F)(F)F [Cpd 424, N-(5-chloro-6-(2H-1,2,3-triazol-2-yl)pyridin-3-yl)-1-(7-chlorothieno[2,3-c]pyridin-4-yl)-5-(trifluoromethyl)-1H-pyrazole-4-carboxamide]	72	–	–	166	182	–	–
O=C(Nc1cnc(-n2nccn2)c(Cl)c1)c1cnn(-c2cnc(N3CC[C@@H](O)C3)c3ccccc23)c1C(F)(F)F [Cpd 427, (R)—N-(5-chloro-6-(2H-1,2,3-triazol-2-yl)pyridin-3-yl)-1-(1-(3-hydroxypyrrolidin-1-yl)isoquinolin-4-yl)-5-(trifluoromethyl)-1H-pyrazole-4-carboxamide]	9	–	–	204	158	–	–
CSc1ncc(-n2ncc(C(=O)Nc3cnc(-n4nccn4)c(Cl)c3)c2C(F)(F)F)c2ccccc12 [Cpd 429, N-(5-chloro-6-(2H-1,2,3-triazol-2-yl)pyridin-3-yl)-1-(1-(methylthio)isoquinolin-4-yl)-5-(trifluoromethyl)-1H-pyrazole-4-carboxamide]	30	–	–	251	112	–	–
O=C(Nc1cnc(-n2nccn2)c(Cl)c1)c1cnn(-c2cnc(N3CC[C@H](O)C3)c3sccc23)c1C(F)(F)F [Cpd 431, (S)—N-(5-chloro-6-(2H-1,2,3-triazol-2-yl)pyridin-3-yl)-1-(7-(3-hydroxypyrrolidin-1-yl)thieno[2,3-c]pyridin-4-yl)-5-(trifluoromethyl)-1H-pyrazole-4-carboxamide]	17	–	–	117	95	–	–
Cc1nc(-n2nccn2)c(Cl)cc1NC(=O)c1cnn(-c2cnc(N3CC(O)C3)c3sccc23)c1C(F)(F)F [Cpd 433, N-(5-chloro-2-methyl-6-(2H-1,2,3-triazol-2-yl)pyridin-3-yl)-1-(7-(3-hydroxyazetidin-1-yl)thieno[2,3-c]pyridin-4-yl)-5-(trifluoromethyl)-1H-pyrazole-4-carboxamide]	170	–	–	589	427	–	–
Cc1ncc(-n2ncc(C(=O)Nc3cnc(-n4nccn4)c(Cl)c3)c2C(F)(F)F)c2ccsc12 [Cpd 434, N-(5-chloro-6-(2H-1,2,3-triazol-2-yl)pyridin-3-yl)-1-(7-methylthieno[2,3-c]pyridin-4-yl)-5-(trifluoromethyl)-1H-pyrazole-4-carboxamide]	214	–	–	288	174	–	–
O=C(Nc1cnc(-n2nccn2)c(Cl)c1)c1cnn(-c2cnc(C3CC3)c3sccc23)c1C(F)(F)F [Cpd 435, N-(5-chloro-6-(2H-1,2,3-triazol-2-yl)pyridin-3-yl)-1-(7-cyclopropylthieno[2,3-c]pyridin-4-yl)-5-(trifluoromethyl)-1H-pyrazole-4-carboxamide]	170	–	–	79	81	–	–
N-(5-cyano-6-(2H-1,2,3-triazol-2-yl)pyridin-3-yl)-1-(imidazo[1,2-a]pyrazin-5-yl)-3-(trifluoromethyl)-1H-pyrazole-4-carboxamide [Cpd 275]	138	–	–	–	–	240	234
